Data: patent publication US20060112494A1, “Method of protecting an animal skin product from metalloproteinase activity” (priority 2004, published 2006)
Read-outs that look alike come from different tables or passages of the source.

Tests used:
[1] = test system: collagenase; details: for Collagenase Activity/Days 2: day 2; for Collagenase Activity/Days 7: day 7; for Collagenase Activity/Days 1: day 1
[2] = test system: Aeromonas salmonicida; parameters: key to the marks not given beside the values; details: for Growth/Days 1: day 1; for Growth/Days 2: day 2; for Growth/Days 7: day 7
Protocol: (§1) Nutrient agar amended with Azocoll (a substrate made up of insoluble particles of collagen impregnated with a bright azo dye) was used as the test medium to study collagenase activity. The nutrient agar was prepared and autoclaved and then was cooled to 55° C. Azocol was added to give a final concentration of 0.5%. […] Using a sterile spatula or cork-borer, the middle portion of each plate of about the size of a United States quarter, was scooped out. Fresh nutrient agar-azocoll medium containing no inhibitor was added to replace the scooped out portion of the plate. […] The bacteria were grown overnight on nutrient agar. A suspension of each culture was made in sterile water and used to inoculate the middle portion of each plate. The treated samples were incubated at 30° C. and evaluated after 24 hours, 2 days and 7 days for collagenase activity and also for the growth of the bacteria. The test cultures secreted collagenase into the medium as they grew to degrade the collagen in the azocoll medium, and collagenase activity was determined by visual inspection of the clear zone around the bacteria. All % are by weight percent of the active ingredient.

[3] = test system: collagenase
[4] = test system: Pseudomonas fluorescens
Protocol: as §1

[5] = Conc. 1.8%, column day 1, footnote d: data collected on day 2
[6] = Conc. 1.8%, column day 2, footnote e: data collected on day 3

In the case of `O=C(O)C[C@H](NCCN[C@@H](CC(=O)O)C(=O)O)C(=O)O` [Na3EDDS, S,S′-ethylenediamine disuccinic acid], the “Collagenase Activity/Days 2” value ([1]; Conc. 0.2%) was “++++”, the “Collagenase Activity/Days 7” value ([1]; Conc. 0.2%) was “++++” and the “Collagenase Activity/Days 1” value ([1]; Conc. 0.5%) was 0. For the same compound, the “Collagenase Activity/Days 7” value ([1]; Conc. 0.5%) was “++++”, the “Collagenase Activity/Days 1” value ([1]; Conc. 0.7%) was 0 and the “Collagenase Activity/Days 1” value ([1]; Conc. 1%) was 0. For the same compound, the “Collagenase Activity/Days 1” value ([1]; Conc. 1.2%) was 0, the “Collagenase Activity/Days 2” value ([1]; Conc. 1.2%) was “+” and the “Collagenase Activity/Days 7” value ([1]; Conc. 1.2%) was “++++”. The “Collagenase Activity/Days 1” value ([1]; Conc. 1.3%) was 0, the “Collagenase Activity/Days 2” value ([1]; Conc. 1.3%) was 0 and the “Collagenase Activity/Days 1” value ([1]; Conc. 1.5%) was 0. The “Collagenase Activity/Days 2” value ([1]; Conc. 1.5%) was 0, the “Collagenase Activity/Days 7” value ([1]; Conc. 1.5%) was 0 and the “Collagenase Activity/Days 1” value ([1]; Conc. 1.8%) was 0. For the same compound, the “Collagenase Activity/Days 2” value ([1]; Conc. 1.8%) was 0, the “Collagenase Activity/Days 7” value ([1]; Conc. 1.8%) was 0 and the “Collagenase Activity/Days 1” value ([1]; Conc. 2%) was 0. The “Collagenase Activity/Days 2” value ([1]; Conc. 2%) was 0, the “Collagenase Activity/Days 7” value ([1]; Conc. 2%) was 0 and the “performance as collagenase inhibitors (summary in words)” value ([1]; collagenase produced by the bacteria studied, Table 2) was “performed very well as collagenase inhibitors”. The “Growth/Days 1” value ([2]; Conc. 0.2%) was “++++”, the “Growth/Days 2” value ([2]; Conc. 0.2%) was “++++” and the “Growth/Days 7” value ([2]; Conc. 0.2%) was “++++”. The “Growth/Days 1” value ([2]; Conc. 0.5%) was “++++”, the “Growth/Days 2” value ([2]; Conc. 0.5%) was “++++” and the “Growth/Days 7” value ([2]; Conc. 0.5%) was “++++”. For the same compound, the “Growth/Days 1” value ([2]; Conc. 0.7%) was “++++”, the “Growth/Days 2” value ([2]; Conc. 0.7%) was “++++” and the “Growth/Days 7” value ([2]; Conc. 0.7%) was “++++”. The “Growth/Days 1” value ([2]; Conc. 1%) was “++++”, the “Growth/Days 2” value ([2]; Conc. 1%) was “++++” and the “Growth/Days 7” value ([2]; Conc. 1%) was “++++”. For the same compound, the “Growth/Days 1” value ([2]; Conc. 1.2%) was “++++”, the “Growth/Days 2” value ([2]; Conc. 1.2%) was “++++” and the “Growth/Days 7” value ([2]; Conc. 1.2%) was “++++”. The “Growth/Days 1” value ([2]; Conc. 1.3%) was “++++”, the “Growth/Days 2” value ([2]; Conc. 1.3%) was “++++” and the “Growth/Days 7” value ([2]; Conc. 1.3%) was “++++”. The “Growth/Days 1” value ([2]; Conc. 1.5%) was “++++”, the “Growth/Days 2” value ([2]; Conc. 1.5%) was “++++” and the “Growth/Days 7” value ([2]; Conc. 1.5%) was “++++”. For the same compound, the “Growth/Days 1” value ([2]; Conc. 1.8%) was “+++”, the “Growth/Days 2” value ([2]; Conc. 1.8%) was “++++” and the “Growth/Days 7” value ([2]; Conc. 1.8%) was “++++”. For the same compound, the “Growth/Days 1” value ([2]; Conc. 2%) was “++”, the “Growth/Days 2” value ([2]; Conc. 2%) was “+++” and the “Growth/Days 7” value ([2]; Conc. 2%) was “+++”. For the same compound, the “Collagenase Activity/Days 1” value ([3]; Conc. 0.1%, day 1) was “++++”, the “Collagenase Activity/Days 2” value ([3]; Conc. 0.1%, day 2) was “++++” and the “Collagenase Activity/Days 7” value ([3]; Conc. 0.1%, day 7) was “++++”. The “Collagenase Activity/Days 2” value ([3]; Conc. 0.2%, day 2) was “++++”, the “Collagenase Activity/Days 7” value ([3]; Conc. 0.2%, day 7) was “++++” and the “Collagenase Activity/Days 1” value ([3]; Conc. 0.3%, day 1) was 0. For the same compound, the “Collagenase Activity/Days 2” value ([3]; Conc. 0.3%, day 2) was “+++”, the “Collagenase Activity/Days 7” value ([3]; Conc. 0.3%, day 7) was “++++” and the “Collagenase Activity/Days 1” value ([3]; Conc. 0.4%, day 1) was 0. For the same compound, the “Collagenase Activity/Days 2” value ([3]; Conc. 0.4%, day 2) was “++”, the “Collagenase Activity/Days 7” value ([3]; Conc. 0.4%, day 7) was “++++” and the “Collagenase Activity/Days 1” value ([3]; Conc. 0.5%, day 1) was 0. For the same compound, the “Collagenase Activity/Days 7” value ([3]; Conc. 0.5%, day 7) was “++++”, the “Collagenase Activity/Days 1” value ([3]; Conc. 0.6%, day 1) was 0 and the “Collagenase Activity/Days 2” value ([3]; Conc. 0.6%, day 2) was 0. For the same compound, the “Collagenase Activity/Days 7” value ([3]; Conc. 0.6%, day 7) was “+”, the “Collagenase Activity/Days 1” value ([3]; Conc. 0.7%, day 1) was 0 and the “Collagenase Activity/Days 1” value ([3]; Conc. 0.8%, day 1) was 0. The “Collagenase Activity/Days 2” value ([3]; Conc. 0.8%, day 2) was 0, the “Collagenase Activity/Days 7” value ([3]; Conc. 0.8%, day 7) was 0 and the “Collagenase Activity/Days 1” value ([3]; Conc. 0.9%, day 1) was 0. The “Collagenase Activity/Days 2” value ([3]; Conc. 0.9%, day 2) was 0, the “Collagenase Activity/Days 7” value ([3]; Conc. 0.9%, day 7) was 0 and the “Collagenase Activity/Days 1” value ([3]; Conc. 1%, day 1) was 0. For the same compound, the “Collagenase Activity/Days 1” value ([3]; Conc. 1.3%, day 1) was 0, the “Collagenase Activity/Days 2” value ([3]; Conc. 1.3%, day 2) was 0 and the “Collagenase Activity/Days 1” value ([3]; Conc. 1.5%, day 1) was 0. The “Collagenase Activity/Days 2” value ([3]; Conc. 1.5%, day 2) was 0, the “Collagenase Activity/Days 7” value ([3]; Conc. 1.5%, day 7) was 0 and the “Collagenase Activity/Days 1” value [3, 5] was 0^d. For the same compound, the “Collagenase Activity/Days 2” value [3, 6] was 0^e, the “Collagenase Activity/Days 7” value ([3]; Conc. 1.8%, day 7 (footnote f)) was 0^f and the “performance as collagenase inhibitors (summary in words)” value ([3]; collagenase produced by the bacteria studied, Table 1) was “performed very well as collagenase inhibitors”. For the same compound, the “Growth/Days 1” value ([4]; Conc. 0.1%, day 1) was “++++”, the “Growth/Days 2” value ([4]; Conc. 0.1%, day 2) was “++++” and the “Growth/Days 7” value ([4]; Conc. 0.1%, day 7) was “++++”. For the same compound, the “Growth/Days 1” value ([4]; Conc. 0.2%, day 1) was “++++”, the “Growth/Days 2” value ([4]; Conc. 0.2%, day 2) was “++++” and the “Growth/Days 7” value ([4]; Conc. 0.2%, day 7) was “++++”. For the same compound, the “Growth/Days 1” value ([4]; Conc. 0.3%, day 1) was “++++”, the “Growth/Days 2” value ([4]; Conc. 0.3%, day 2) was “++++” and the “Growth/Days 7” value ([4]; Conc. 0.3%, day 7) was “++++”. For the same compound, the “Growth/Days 1” value ([4]; Conc. 0.4%, day 1) was “++++”, the “Growth/Days 2” value ([4]; Conc. 0.4%, day 2) was “++++” and the “Growth/Days 7” value ([4]; Conc. 0.4%, day 7) was “++++”. For the same compound, the “Growth/Days 1” value ([4]; Conc. 0.5%, day 1) was “++++”, the “Growth/Days 2” value ([4]; Conc. 0.5%, day 2) was “++++” and the “Growth/Days 7” value ([4]; Conc. 0.5%, day 7) was “++++”. The “Growth/Days 1” value ([4]; Conc. 0.6%, day 1) was “++++”, the “Growth/Days 2” value ([4]; Conc. 0.6%, day 2) was “++++” and the “Growth/Days 7” value ([4]; Conc. 0.6%, day 7) was “++++”. The “Growth/Days 1” value ([4]; Conc. 0.7%, day 1) was “++++”, the “Growth/Days 2” value ([4]; Conc. 0.7%, day 2) was “++++” and the “Growth/Days 7” value ([4]; Conc. 0.7%, day 7) was “++++”. For the same compound, the “Growth/Days 1” value ([4]; Conc. 0.8%, day 1) was “++++”, the “Growth/Days 2” value ([4]; Conc. 0.8%, day 2) was “++++” and the “Growth/Days 7” value ([4]; Conc. 0.8%, day 7) was “++++”. For the same compound, the “Growth/Days 1” value ([4]; Conc. 0.9%, day 1) was “++++”, the “Growth/Days 2” value ([4]; Conc. 0.9%, day 2) was “++++” and the “Growth/Days 7” value ([4]; Conc. 0.9%, day 7) was “++++”. The “Growth/Days 1” value ([4]; Conc. 1%, day 1) was “++++”, the “Growth/Days 2” value ([4]; Conc. 1%, day 2) was “++++” and the “Growth/Days 7” value ([4]; Conc. 1%, day 7) was “++++”. The “Growth/Days 1” value ([4]; Conc. 1.3%, day 1) was “++++”, the “Growth/Days 2” value ([4]; Conc. 1.3%, day 2) was “++++” and the “Growth/Days 7” value ([4]; Conc. 1.3%, day 7) was “++++”. For the same compound, the “Growth/Days 1” value ([4]; Conc. 1.5%, day 1) was “++++”, the “Growth/Days 2” value ([4]; Conc. 1.5%, day 2) was “++++” and the “Growth/Days 7” value ([4]; Conc. 1.5%, day 7) was “++++”. The “Growth/Days 1” value [4, 5] was “++++^d”, the “Growth/Days 2” value [4, 6] was “++++^e” and the “Growth/Days 7” value ([4]; Conc. 1.8%, day 7 (footnote f)) was “++++^f”.
